A short description of data set [1]: Acute toxicity in mice, intravenous and oral (LD50). The class given is in vivo. The note with it: mouse, in vivo. An excerpt: The acute toxicities of the compounds according to the invention have been determined CD 1 mice (Charles RIVER) by intravenous and oral methods. The LD50 calculated by the quantal cumulative method of J. J. Reed and H. Muench (Amer. J. Hyg. 1938, 27, 493) are collected in the following Table: […]

The test system of data set [2] is isolated duodenum of rabbit, spasms induced by barium chloride. Kind of data set: Spasmolytic activity, musculotrope versus BaCl2, isolated duodenum (Magnus). The text has this: (§1) The spasmolytic activities are known by means of the technique of R. Magnus (Arch. Ges. Physiol., 1904, 102, 123) on the isolated duodenum of rabbits. The spasmolytic neurotropes inhibit the contractions of the organ caused by acetylcholine, while the musculotropes prevent the spasms induced by barium chloride. The EC 50 expressed in mg/litre are collected in the following Table where EC denotes "Effective concentration".

Data set [3] concerns isolated duodenum of rabbit, contractions caused by acetylcholine. Kind of data set: Spasmolytic activity, neurotrope versus acetylcholine, isolated duodenum (Magnus).
Description: as §1

In data set [4] the test system is isolated rabbit heart. Kind of data set: Coronaro-dilatatory activity, isolated heart (Langendorff modified by Anderson). The note with it: for coronaro-dilatatory activity (in words): isolated rabbit heart. The text has this:
The technique of Langendorff, modified by F. E. Anderson, (J. Pharmacol. exp. Therap., 1948, 91, 135) using isolated rabbit heart permits the coronaro-dilatatory activity of the products to be studied. In this text, the cardiac perfusion liquid contains 0.5 UI/1 of posthypophysis. The results are expressed in the percentage variation of the coronary flow after affusion of the product to be tested, compared with the initial flow.

[5] abbreviates: intravenous, read-out: Acute toxicity to mice LD 50, intravenous.
[6] abbreviates: oral, read-out: Acute toxicity to mice LD 50, orally.

Consider 17 compounds from patent US3968214A, “5-Methylthio-pyrimidine vasodilators” (Produits Chimiques Ugine Kuhlmann, priority 1973, dated 1976).

Each structure is given as a SMILES string. Read-outs that look alike come from different tables or passages of the source. Some results are limits rather than exact numbers.

In the case of `CCN(CC)CCNc1nc(N(C)C)nc(Cl)c1SC` [Example 1, 2-dimethylamino-4-(2'-diethylamine)ethylamino-5-methylthio-6-chloropyrimidine], the LD50 in data set [1] (setting [5]) stood at 53 mg/kg; in data set [1] (setting [6]), 200 mg/kg. For the same compound, in data set [2], the “Spasmolytic activity EC 50, musculotrope versus BaCl2” value worked out at 1.40 µg/mL. Moreover, in data set [3], the “Spasmolytic activity EC 50, neurotrope versus acetylcholine” value amounted to 5.50 µg/mL.

Take `CCN(CC)CCNc1nc(N(C)Cc2ccccc2)nc(Cl)c1SC` [Example 4, 2-N-methyl-N-benzylamino-4-(2'-diethylamino)-ethylamino-5-methylthio-6-chloro-pyrimidine]: the results for the LD50 in data set [1] (setting [5]) and in data set [1] (setting [6]) were 45 mg/kg and 525 mg/kg, respectively. Moreover, in data set [2], the “Spasmolytic activity EC 50, musculotrope versus BaCl2” value worked out at 0.06 µg/mL. Further, in data set [2], the “musculotropic EC 50” value is on record as “less than 0.1 mg/liter”. Besides, in data set [2], the “musculotropic spasmolytic activity (in words)” value is “quite remarkable activities”. Moreover, the “Spasmolytic activity EC 50, neurotrope versus acetylcholine” value in data set [3] stood at 0.30 µg/mL. In addition, in data set [3], the “neurotropic spasmolytic activity (in words)” value is “necessary to call attention”. The “Increase of the coronary flow” value in data set [4] (dose 0.003 mg) is recorded as 8%; in data set [4] (dose 0.01 mg), 28%; in data set [4] (dose 0.03 mg), 41%; in data set [4] (dose 0.10 mg) it was 135%. In addition, the “coronaro-dilatatory activity (in words)” value in data set [4] was “interesting coronaro-dilatatory activities”.

Regarding `CSc1c(Cl)nc(N(C)C)nc1NCCN(C)C` [Example 8, 2-dimethylamino-4-(2'-dimethylamino)-ethylamino-5-methylthio-6-chloro-pyrimidine], the values for the LD50 in data set [1] (setting [5]) and in data set [1] (setting [6]) were 57 mg/kg and 525 mg/kg, respectively. Moreover, the “Spasmolytic activity EC 50, musculotrope versus BaCl2” value in data set [2] is 2.80 µg/mL. Also, the “Spasmolytic activity EC 50, neurotrope versus acetylcholine” value in data set [3] turned out to be 4.90 µg/mL.

For `CSc1c(Cl)nc(N2CCOCC2)nc1NCCN(C)C` [Example 9, 2-morpholino-4-(2'-dimethylamino)-ethyl-amino-5-methylthio-6-chloro-pyrimidine], in data set [1] (setting [6]), the LD50 turned out to be 400 mg/kg. The “Spasmolytic activity EC 50, musculotrope versus BaCl2” value in data set [2] amounted to 1.90 µg/mL. Further, the “Spasmolytic activity EC 50, neurotrope versus acetylcholine” value in data set [3] was found to be 3.00 µg/mL.

Consider `CCOC(=O)CN(C)c1nc(Cl)c(SC)c(NCCN(C)C)n1` [Example 10, 2-N-methyl-N-(ethoxycarbonylmethyl)-amino-4-(2'-dimethylamino)-ethylamino-5-methylthio-6-chloro-pyrimidine], for which the LD50 in data set [1] (setting [5]) came to 79 mg/kg; in data set [1] (setting [6]) it was 900 mg/kg. For the same compound, the “Spasmolytic activity EC 50, musculotrope versus BaCl2” value in data set [2] stood at 0.50 µg/mL. In data set [3], the “Spasmolytic activity EC 50, neurotrope versus acetylcholine” value worked out at 0.50 µg/mL. For the same compound, the “neurotropic spasmolytic activity (in words)” value in data set [3] is “necessary to call attention”.

`CSc1c(Cl)nc(N(C)Cc2ccccc2)nc1NCCN(C(C)C)C(C)C` [Example 11, 2-N-methyl-N-benzylamino-4-(2'-di-isopropyl-amino)-ethylamino-5-methylthio-6-chloro-pyrimidine]: the results for the LD50 in data set [1] (setting [5]) and in data set [1] (setting [6]) were 60 mg/kg and 675 mg/kg, respectively. For the same compound, the “Spasmolytic activity EC 50, musculotrope versus BaCl2” value in data set [2] stood at 0.02 µg/mL. In data set [2], the “musculotropic EC 50” value was “less than 0.1 mg/liter”. Moreover, the “musculotropic spasmolytic activity (in words)” value in data set [2] is on record as “quite remarkable activities”. Moreover, the “Spasmolytic activity EC 50, neurotrope versus acetylcholine” value in data set [3] was determined as 3.50 µg/mL. Moreover, the figures for the “Increase of the coronary flow” value in data set [4] (dose 0.001 mg) and in data set [4] (dose 0.003 mg) were 168% and 172%, respectively. The “coronaro-dilatatory activity (in words)” value in data set [4] was “interesting coronaro-dilatatory activities”.

For the compound `CCOC(=O)CN(C)c1nc(Cl)c(SC)c(NCCN(C(C)C)C(C)C)n1` [Example 15, 2-N-methyl-N-(ethoxycarbonylmethyl)-amino-4-(2'-diisopropylamino)-ethylamino-5-methyl-thio-6-chloro-pyrimidine], the LD50 in data set [1] (setting [5]) was 63 mg/kg; in data set [1] (setting [6]), greater than 900 mg/kg. Moreover, the “Spasmolytic activity EC 50, musculotrope versus BaCl2” value in data set [2] turned out to be 0.05 µg/mL. For the same compound, in data set [2], the “musculotropic EC 50” value is recorded as “less than 0.1 mg/liter”. The “musculotropic spasmolytic activity (in words)” value in data set [2] is listed as “quite remarkable activities”. In addition, the “Increase of the coronary flow” value is listed as 16% in data set [4] (dose 0.003 mg), 24% in data set [4] (dose 0.01 mg), 44% in data set [4] (dose 0.03 mg) and 28% in data set [4] (dose 0.10 mg). The “coronaro-dilatatory activity (in words)” value in data set [4] was “interesting coronaro-dilatatory activities”.

Regarding `CCN(CC)CCNc1nc(N(C)c2ccc(C)cc2)nc(Cl)c1SC` [Example 19, 2-N-methyl-N(4-methyl-phenyl)amino-4-(2'-diethylamino)-ethylamino-5-methyl-thio-6-chloro-pyrimidine], in data set [1] (setting [6]), the LD50 is roughly 675 mg/kg.

For the compound `CCN(CC)CCNc1nc(N(C)c2ccc(OC)c(OC)c2)nc(Cl)c1SC` [Example 20, 2-N-methyl-N(3,4-dimethoxy-phenyl)amino-4-(2'-diethylamino)-ethylamino-5-methylthio-6-chloro-pyrimidine], in data set [1] (setting [6]), the LD50 turned out to be 400 mg/kg.

Take `COc1ccc(N(C)c2nc(Cl)c(SC)c(NCCN(C(C)C)C(C)C)n2)cc1OC` [Example 21, 2-N-methyl-N(3,4-dimethoxy-phenyl)amino-4-(2'-diisopropylamino)-ethylamino-5-methylthio-6-chloro-pyrimidine]: the LD50 in data set [1] (setting [6]) was roughly 600 mg/kg.

Turning to `CSc1c(Cl)nc(N(C)c2ccc(Cl)cc2)nc1NCCN1CC(C)OC(C)C1` (stereo not drawn) [Example 22, 2-N-methyl-N-(4-chloro-phenyl)amino-4-(2'-2,6-dimethyl-morpholino)-ethylamino-5-methylthio-6-chloro-pyrimidine], the LD50 in data set [1] (setting [6]) is greater than 900 mg/kg.

With `CSc1c(NCCN(C)C)nc(N(C)C)nc1OCc1cccnc1` [Example 23, 2-N-dimethyl-amino-4-(2'-dimethylamino)-ethylamino-5-methyl-thio-6-(3-pyridyl)-methoxy-pyrimidine], the LD50 came to 22 mg/kg in data set [1] (setting [5]) and 175 mg/kg in data set [1] (setting [6]). Further, the “Spasmolytic activity EC 50, musculotrope versus BaCl2” value in data set [2] amounted to 1.00 µg/mL. For the same compound, the “Spasmolytic activity EC 50, neurotrope versus acetylcholine” value in data set [3] came to 8.60 µg/mL.

As for `CCN(CC)CCNc1nc(N(C)c2ccc(Cl)cc2)nc(OC)c1SC` [Example 25, 2-N-methyl-N(4-chloro-phenyl)amino-4-(2'-diethylamino)-ethylamino-5-methylthio-6-methoxy-pyrimidine], in data set [1] (setting [6]), the LD50 is roughly 600 mg/kg.

Turning to `COc1ccc(N(C)c2nc(NCCN(C(C)C)C(C)C)c(SC)c(OC)n2)cc1OC` [Example 28, 2-N-methyl-N-(3,4-dimethoxy-phenyl)-amino-4-(2'-diisopropyl-amino)-ethyl-amino-5-methylthio-6-methoxy-pyrimidine], the LD50 in data set [1] (setting [6]) was roughly 200 mg/kg.

In the case of `COc1nc(N2CCCCC2)nc(NCCN(C(C)C)C(C)C)c1SC` [Example 29, 2-piperidino-4-(2'-diisopropyl-amino)-ethylamino-5-methylthio-6-methoxy-pyrimidine], in data set [1] (setting [6]), the LD50 was roughly 200 mg/kg.

`CCCCOc1nc(N(C)Cc2ccccc2)nc(NCCN(C(C)C)C(C)C)c1SC` [Example 31, 2-N-methyl-2-N-benzylamino-4-(2'-di-isopropyl-amino)-ethylamino-5-methylthio-6-butoxy-pyrimidine]: in data set [1] (setting [6]), the LD50 is roughly 675 mg/kg.

For the compound `CCCCOc1nc(N(C)c2ccccc2)nc(NCCN(C(C)C)C(C)C)c1SC` [Example 32, 2-N-methyl-N-phenylamino-4-(2'-diiso-propyl-amino)-ethylamino-5-methyl-thio-6-butoxy-pyrimidine], the LD50 in data set [1] (setting [6]) was roughly 525 mg/kg.
